Experimental data reported in US20240116918A1, “SUBSTITUTED TRICYCLIC COMPOUND AS PRMT5 INHIBITOR AND USE THEREOF” (NANJING SANHOME PHARMACEUTICAL CO., LTD., priority 2019, published 2024).

Experiments:
PRMT5 = PRMT5 (Homo sapiens (Human), UniProt O14744); experiment: In vitro evaluation of kinase activity (PRMT5 enzymatic assay, [3H]-SAM FlashPlate); format: biochemical; settings: polypeptide substrate H4(1-21)S1ac 100 nM, [3H]-SAM 250 nM, 25° C., 60 min; read-out: Enzyme IC50 PRMT5
Protocol: Compounds: the compounds of the present invention prepared in the above examples. Each compound was formulated into a 10 mM stock solution with DMSO, and finally diluted into 10 concentrations for detection, with the final concentrations being 10000.00 nM, 3333.33 nM, 1111.11 nM, 370.37 nM, 123.46 nM, 41.15 nM, 13.72 nM, 4.57 nM, 1.52 nM, and 0.51 nM.
Reagents and consumables: PRMTS, purchased from Active Motif, Cat. No. 31921; polypeptide substrate H4(1-21)S1ac, purchased from Gill Biochemical (Shanghai) Co., Ltd., Cat. No. 342095; [^3H]-SAM, purchased From PerkinElmer, Cat. No. NET155V001MC; SAM, purchased from Sigma, Cat. No. A7007-100MG; SAH, purchased from Sigma, Cat. No. A9384-25MG; DTT, purchased from Sangon Bioengineering (Shanghai) Co., Ltd., Cat. No. A620058-0005. Corning-3657, purchased from Corning, Cat. No. 3657; Echo Qualified 384-Well, purchased from Labcyte, Cat. No. P-05525; FlashPlate, purchased from Perkin Elmer, Cat. No. SMP410J001PK.
2.1. Preparation of reaction buffer and reaction stop solution: the composition of 1× reaction buffer was 10 mM Tris-HCl, pH 8.0; 0.01% Tween-20; and 1 mM DTT. The composition of the reaction stop solution was 125 μM […] solution.
The compounds were dissolved in 100% DMSO to prepare 10 mM stock solutions and then diluted to desired concentrations on an Echo 384 well plate.
250 nL of the compounds diluted above were transferred from the Echo 384 well plate to a 384 well reaction plate using the Echo550 instrument.
PRMT5 was added to 1× reaction buffer to form 1.67× enzyme solution.
The polypeptide substrate and [^3H]-SAM were added to 1× reaction buffer to form 2.5× substrate solution (the final concentrations were 100 nM and 250 nM, respectively).
15 μL of 1.67× enzyme solution was added to the wells of a 384 well reaction plate. For control wells without enzymatic activity, the enzyme solution was replaced with 15 μL of 1× reaction buffer. The plate was centrifuged at 1000 rpm for 1 min and incubated at room temperature for 15 min. […]

hERG potassium channel = hERG potassium channel (Homo sapiens (Human), UniProt Q12809)
Sequence of hERG potassium channel (Q12809 whole entry): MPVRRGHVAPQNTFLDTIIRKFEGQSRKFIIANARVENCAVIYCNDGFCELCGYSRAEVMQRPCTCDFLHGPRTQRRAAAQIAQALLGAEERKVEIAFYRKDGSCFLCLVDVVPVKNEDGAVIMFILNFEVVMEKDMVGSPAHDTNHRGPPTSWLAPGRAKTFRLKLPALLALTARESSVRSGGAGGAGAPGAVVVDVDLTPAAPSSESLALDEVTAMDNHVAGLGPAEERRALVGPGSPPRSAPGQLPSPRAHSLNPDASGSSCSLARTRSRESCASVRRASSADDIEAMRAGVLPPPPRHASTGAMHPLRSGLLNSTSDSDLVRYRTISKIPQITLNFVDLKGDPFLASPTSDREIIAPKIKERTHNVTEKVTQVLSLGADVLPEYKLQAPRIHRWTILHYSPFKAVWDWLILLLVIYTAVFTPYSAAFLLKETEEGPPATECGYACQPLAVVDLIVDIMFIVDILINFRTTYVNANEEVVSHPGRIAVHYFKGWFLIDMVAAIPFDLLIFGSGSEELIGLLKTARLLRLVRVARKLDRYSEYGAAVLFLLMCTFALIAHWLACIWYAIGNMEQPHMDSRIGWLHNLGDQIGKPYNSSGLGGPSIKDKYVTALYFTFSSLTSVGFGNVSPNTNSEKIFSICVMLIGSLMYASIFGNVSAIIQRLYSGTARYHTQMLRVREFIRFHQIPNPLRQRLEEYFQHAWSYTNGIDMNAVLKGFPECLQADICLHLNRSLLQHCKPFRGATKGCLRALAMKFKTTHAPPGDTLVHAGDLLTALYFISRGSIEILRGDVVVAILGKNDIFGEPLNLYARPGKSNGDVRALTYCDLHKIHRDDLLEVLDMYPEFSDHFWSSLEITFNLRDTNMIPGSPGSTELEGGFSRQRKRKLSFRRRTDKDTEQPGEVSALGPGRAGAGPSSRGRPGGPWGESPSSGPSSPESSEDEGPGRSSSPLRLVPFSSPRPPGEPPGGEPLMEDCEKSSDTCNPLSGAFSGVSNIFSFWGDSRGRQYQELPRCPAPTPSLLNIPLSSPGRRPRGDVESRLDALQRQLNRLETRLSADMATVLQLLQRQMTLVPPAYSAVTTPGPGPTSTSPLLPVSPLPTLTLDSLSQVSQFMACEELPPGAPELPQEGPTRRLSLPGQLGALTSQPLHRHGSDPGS
Protocol: Preparation of test solvents: preparation of extracellular fluid (mM): 137 NaCl, 4 KCl, 1.8 CaCl2, 1 MgCl2, 10 glucose and 10 HEPES (pH 7.4); preparation of intracellular fluid (mM): 130 KCl, 1 MgCl2, 5 EGTA, 5 MgATP and 10 HEPES (pH 7.2); preparation of negative control: extracellular fluid+0.3% DMSO; positive control: quinidine.
Compound treatment: The compound was weighed and dissolved in DMSO to prepare a 10 mM stock solution, which was diluted with DMSO to form secondary stock solutions with concentrations of 3.3, 1.1, 0.37 and 0.12 mM. 90 μL each of the stock solution and the secondary stock solutions was diluted into 30 mL of extracellular fluid for electrophysiological detection. The final concentrations of the compound were 30, 10, 3.3, 1.1 and 0.37 μM, and the final concentration of DMSO was 3:1000.
Stably transfected cell culture: The cell line was originated from HEK-293 cells overexpressing hERG potassium ion channel. […] The cells were cultured in an incubator at 37° C. and 5% CO2. When the cell density reaches 80% of the petri dish, the cells were first pre-washed with phosphate buffered saline (PBS), then digested with trypsin/EDTA for 2-3 min. Cell culture medium was added to stop the digestion. The cells were gently blown down and transferred to a centrifuge tube, and centrifuged at 1000 rpm for 3 min. The supernatant was discarded, cell culture medium was added, and the cells were mixed uniformly by gentle tapping. After that, the mixture was transferred to a petri dish for subculture, or the cells were dripped on a round glass slide and placed on a petri dish for the cells to adhere for experiments.
Experiments on electrophysiological manual patch-clamp system: The stably transfected cells were inoculated on a glass slide with a cell density lower than 50%, and cultured overnight. The experimental cells were transferred to a bath of about 1 mL embedded in an inverted microscope platform, and the extracellular fluid was perfused at a perfusion rate of 2.7 mL/min. After 5 minutes of stabilization, the experiment was started. Membrane currents were recorded using HEKA EPC-10 patch clamp amplifier and [sequence] acquisition system. All the experiments were performed at room temperature (22-24° C.). Electrodes were drawn straight using P-97 microelectrode drawing instrument (BF150-110-10) in the experiments. The inner diameter of the electrode was 1-1.5 mm, and the pipette resistance after filling with the inner liquid was 2-4 MΩ. The electrophysiological stimulation scheme of hERG potassium channel included: first setting the membrane voltage at −80 mV, applying a stimulation to the cells at +20 mV voltage for 2 s to activate the hERG potassium channel, and then repolarizing to −50 mV for 5 s to generate an outward tail current. The stimulation frequency was once every 15 s. The current value was the peak value of the tail current. The channel currents were recorded in the whole-cell recording mode. Firstly, the extracellular fluid was perfused (about 2 mL per minute) while recording was continued. When the current was stabilized (the current decay (Run-Down) was less than 5% within 5 minutes), the peak value of the tail current was the control current value. Then, the extracellular fluid containing the drug to be tested was perfused while the recording was continued until the inhibitory effect of the drug on the hERG current reached a steady state. At this time, the peak value of the tail current was the current value after drug addition. […]

Sequence of PRMT5 (O14744 whole entry): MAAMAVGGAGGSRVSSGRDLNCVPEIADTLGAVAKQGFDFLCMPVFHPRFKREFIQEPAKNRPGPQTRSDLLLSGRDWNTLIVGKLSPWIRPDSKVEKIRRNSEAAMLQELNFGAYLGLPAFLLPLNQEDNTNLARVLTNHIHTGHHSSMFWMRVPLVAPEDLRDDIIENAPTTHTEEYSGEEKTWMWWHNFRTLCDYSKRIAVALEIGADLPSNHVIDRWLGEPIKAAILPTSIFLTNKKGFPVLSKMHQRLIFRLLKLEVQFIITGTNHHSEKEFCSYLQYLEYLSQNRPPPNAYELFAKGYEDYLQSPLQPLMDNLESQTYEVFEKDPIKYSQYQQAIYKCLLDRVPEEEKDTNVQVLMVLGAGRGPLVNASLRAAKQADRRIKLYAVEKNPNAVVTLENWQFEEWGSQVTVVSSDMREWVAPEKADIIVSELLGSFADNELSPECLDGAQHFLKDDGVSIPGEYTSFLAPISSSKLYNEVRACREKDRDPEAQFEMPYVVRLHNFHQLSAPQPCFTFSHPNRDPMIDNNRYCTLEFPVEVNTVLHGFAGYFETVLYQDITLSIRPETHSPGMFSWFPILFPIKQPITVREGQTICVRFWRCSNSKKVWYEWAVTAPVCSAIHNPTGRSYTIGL
Sequence of PRMT5 (Q9BQA1 whole entry partner): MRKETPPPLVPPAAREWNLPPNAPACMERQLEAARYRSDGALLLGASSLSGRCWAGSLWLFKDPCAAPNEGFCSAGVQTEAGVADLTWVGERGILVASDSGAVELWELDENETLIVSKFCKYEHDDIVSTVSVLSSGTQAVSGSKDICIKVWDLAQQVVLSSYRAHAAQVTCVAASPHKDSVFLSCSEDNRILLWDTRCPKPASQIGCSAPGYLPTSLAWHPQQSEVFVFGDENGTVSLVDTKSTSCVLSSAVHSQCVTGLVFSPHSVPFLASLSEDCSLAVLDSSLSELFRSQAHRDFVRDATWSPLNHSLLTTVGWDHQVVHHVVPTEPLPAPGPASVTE

SMILES	IC50 (PRMT5) [nM]	inhibitory effect on the hERG potassium channel (in words) (hERG potassium channel)
CC(=O)N1CCC(Nc2cc3c(cn2)C2(CC2)CN(C[C@H](O)CN2CCc4ccccc4C2)C3=O)CC1 [Example 1, (R)-7′-((1-acetylpiperidin-4-yl)amino)-2′-(3-(3,4-dihydroisoquinolin-2(1H)-yl)-2-hydroxypropyl)-2′,3′-dihydro-1′H-spiro[cyclopropane-1,4′-[2,6]naphthyridin]-1′-one]	32.7	–
CC(=O)N1CC2(CC(Nc3cc4c(cn3)C3(CC3)CN(C[C@H](O)CN3CCc5ccccc5C3)C4=O)C2)C1 [Example 2, (R)-7′-((2-acetyl-2-azaspiro[3.3]hept-6-yl)amino)-2′-(3-(3,4-dihydroisoquinolin-2(1H)-yl)-2-hydroxypropyl)-2′,3′-dihydro-1′H-spiro[cyclopropane-1,4′-[2,6]naphthyridin]-1-one]	49.7	weak inhibitory effect
